# Experiments:
# SB.msgc-1 = test: AC50 for growth inhibition (viability) (log10 M); higher = less potent; details: SB.msgc-1 (sporadic gastric cancer)
# Procedure, shortened: (§1)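 Compound dissolved in DMSO was transferred by pintool, 23 nL per 1536 well, onto 500 hereditary or sporadic patient-derived gastric cancer cells in 5 μL medium. The series spanned 11 threefold dilutions, the highest at a final 46 μM. At 48 h, a 30 min room-temperature incubation with CellTiter-Glo preceded luminescence measurement on a ViewLux. The log half-maximal activity concentration was fitted by a four-parameter model to DMSO-normalised viability, with only high-quality curve classes accepted.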
# SB.mhdgc-1 = test: as above; details: SB.mhdgc-1 (hereditary c.1380delA CDH1 gastric cancer)
# Procedure, shortened: as §1
SMILES,AC50 for growth inhibition (log10 M) (SB.msgc-1),AC50 for growth inhibition (log10 M) (SB.mhdgc-1)
COC1=CC=C2[N](CCCN(C)C)C=C(C2=C1)C/3=C(/C(=O)NC3=O)C4=C[NH]C5=C4C=CC=C5 [G?-6983],-4.58,-6.78
NC1(c2ccc(-c3nc4ccn5c(=O)[nH]nc5c4cc3-c3ccccc3)cc2)CCC1 [MK-2206],-4.68,-6.13
CCN(CC)CCNC(=O)c1c(C)[nH]c(/C=C2\C(=O)Nc3ccc(F)cc32)c1C [Sunitinib malate],-4.42,-5.32
CNC(=O)c1cc(Oc2ccc(NC(=O)Nc3ccc(Cl)c(C(F)(F)F)c3)c(F)c2)ccn1 [Regorafenib],-4.83,-4.78
CCC(C)SSc1ncc[nH]1 (centres undefined) [PX-12],-4.58,-4.63
O=C(c1ccc(F)c(F)c1Nc1ccc(I)cc1F)N1CC(O)([C@H]2CCCCN2)C1 [Cobimetinib],-5.28,-4.78
CC(C)(F)C[C@H](N[C@@H](c1ccc(-c2ccc([S+](C)(=O)[O-])cc2)cc1)C(F)(F)F)C(=O)NC1(C#N)CC1 [Odanacatib],-4.88,-5.38
CC1(C)CCC(=C(\C1)C2=CC=C(Cl)C=C2)/CN3CCN(CC3)C4=CC(=C(C=C4)C(=O)N[S+]([O-])(=O)C5=CC=C(NCC6CCOCC6)C(=C5)[N+]([O-])=O)OC7=CN=C8[NH]C=CC8=C7 [ABT-199],-4.88,-4.73
CC(C)C[C@@H](C=O)NC(=O)[C@H](CC(C)C)NC(=O)[C@H](CC(C)C)NC(=O)OCc1ccccc1 [MG-132],-6.08,-6.33
C#CCC(Cc1cnc2nc(N)nc(N)c2n1)c1ccc(C(=O)N[C@@H](CCC(=O)O)C(=O)O)cc1 (some centres undefined) [Pralatrexate],-7.28,-6.58
CN(C)c1ccc(O)c2c1C[C@H]1C[C@H]3[C@H](N(C)C)C(O)=C(C(N)=O)C(=O)[C@@]3(O)C(O)=C1C2=O [Minocycline],-5.38,-5.43
CCc1ccc(C(=O)Nc2cc(CN3CCN(C)CC3)cc(C(F)(F)F)c2)cc1C#Cc1cnc2ccnn2c1 [PRP003-013],-4.78,-5.13
CN(C)[S+](=O)([O-])c1ccc2c(c1)C(=Cc1cc3c([nH]1)CCCC3)C(=O)N2 [SU-6656],-5.43,-5.28
CCC(=O)N1CCN(CC1)C2=C(C=C(C=C2)N3C(=O)\C=C/C4=C3C5=CC(=CC=C5N=C4)C6=CN=C7C=CC=CC7=C6)C(F)(F)F [Torin-1],-5.13,-6.63
C[C@H]1[C@@H](C(=O)C[C@H]2O[C@@H]3O[C@]4(C)CC[C@H]5[C@H](C)CC[C@@H]([C@H]2C)[C@@]35OO4)O[C@@H]2O[C@]3(C)CC[C@H]4[C@H](C)CC[C@@H]1[C@@]24OO3 [BTM-2C-dimer ketone],-6.38,-6.38
CC1(C)CNc2cc(NC(=O)c3cccnc3NCc3ccncc3)ccc21 [Motesanib],-5.98,-7.23
COC1=CC=C2/C3=N/CCN3\C(=N/C2=C1OC)NC(=O)C4=CC=CN=C4 [PIK-90],-4.98,-5.33

# Source: the supplement of paper PMC5412046
